System: Triticum aestivum
Assay: Drought stress test on wheat Part D, reduction in damage intensity from fresh weights
Format: in vivo
Details: efficacy = reduction in damage intensity (fresh weight) under drought stress, 25 g/ha, at least three repeats
Description: Wheat grains were sown in a standardized number in sandy loam soil plastic pots, covered with soil or sand and grown in a greenhouse under good growth conditions. Pots with uneven degrees of emergence were excluded prior to the start of the trial. The treatment with test substances was effected at the early leaf stage (BBCH10-BBCH13). To assure uniform water supply, the potted plants were supplied with water by dam irrigation prior to substance application. The inventive compounds were first formulated as wettable powders (WP) or dissolved in a solvent mixture. The further dilution was effected with water supplemented with 0.2% wetting agent (e.g. agrotin). The finished spray liquor was sprayed onto the green parts of the plant at an equivalent water application rate of 600 l/ha. Substance application was followed immediately by stress treatment of the plants. Drought stress was induced by gradual drying out under the following conditions: “Day”: 14 hours with illumination at 26-30° C. “Night”: 10 hours without illumination at 18-20° C. The duration of the respective stress phases was guided mainly by the condition of the stressed control plants. It was ended (by re-irrigating and transfer to a greenhouse with good growth conditions) as soon as irreversible damage was observed on the stressed control plants. The end of the stress phase was followed by an about 7-day recovery phase, during which the plants were once again kept under good growth conditions in a greenhouse. The exact duration of the recovery phase was variable for reasons related to the trial. At the end of the recovery phase, the fresh weights of the plant parts above ground were determined. By comparison with unstressed control plants which were kept under good growth conditions over the entire duration of the trial, percentage damage intensities were first calculated from the fresh weight values. The reduction in damage intensity resulting from treatment with test substance was then calculated by the following formula: [formula] EF: Efficacy DIs: Damage intensity of the stressed control plants DIt: Damage intensity of the stressed plants treated with test compound The values reported in table D-1 below are results from at least three repeats. BRSNS=Brassica napus TRZAS=Triticum aestivum

COC(=O)CCN1C(=O)CCc2cc(NS(=O)(=O)Cc3ccc(F)cc3)ccc21 [A51-158]
EF [%] (TRZAS): 11%

From US20170027172A1, “USE OF SUBSTITUTE OXO TETRAHYDROQUINOLINE SULFONAMIDES OR SALTS THEREOF FOR RAISING STRESS TOLERANCE OF PLANTS” (BAYER CROPSCIENCE AKTIENGESELLSCHAFT, priority 2014, published 2017)
